{"source": "paper PMC3544846", "about": "“Triphenylmethane Derivatives Have High In Vitro and In Vivo Activity against the Main Causative Agents of Cutaneous Leishmaniasis” (PLoS ONE, 2013)", "key": {"[1]": {"test_system": "L. (L.) amazonensis promastigotes", "test": "Promastigotes assay, L. (L.) amazonensis", "format": "cell-based", "details": "Leishmania amazonensis, 48 h incubation, mean of triplicates", "experimental": "(§1) Promastigotes of L. (L.) amazonensis (IFLA/BR/1967/PH-8), L. (V.) braziliensis (MHOM/BR/75/M2903), and L. (L.) major (MHOM/IL/80/Friedlin) were maintained at 23°C in Schneider's Drosophila medium (Merck, Germany) supplemented with 20% heat-inactivated fetal calf serum (FCS) (Gibco, Eggenstein, Germany), pH 7.2. The same strain of L. (L.) amazonensis was used for both in vitro and in vivo experiments.\n(§2) Promastigotes of L. (L.) amazonensis, L. (V.) braziliensis or L. (L.) major with 3 or 4 days of growth were plated in 24 well plates at a plating density of 1×10^6 parasites/mL in Schneider's medium supplemented with 20% FCS, pH 7.2. Drugs were diluted at the same medium and added to a parasite suspension in different concentrations, in triplicate. After 48 h of incubation, the parasites were counted and compared to the controls containing parasites in the absence of drugs. The drug concentration corresponding to 50% of the parasite growth inhibition was expressed as IC50. Three independent experiments were performed to confirm the results. Data are presented as mean and 95% CI."}, "[2]": {"test_system": "hamsters infected L. (V.) braziliensis", "design": "method as in PMID 15652330", "details": "intramuscular administration, doses equivalent to human chemotherapy; cited from earlier work"}, "[3]": {"test_system": "BALB/c mice infected with L. (L.) amazonensis", "details": "intramuscular administration, doses equivalent to human chemotherapy; cited from earlier work"}, "[4]": {"test_system": "L. (L.) amazonensis intracellular amastigotes", "test": "Intracellular amastigote assay, L. (L.) amazonensis in BALB/c peritoneal macrophages", "format": "cell-based", "details": "Leishmania amazonensis, in Mus musculus, 72 h; for IC50: Macrophage, intracellular amastigotes in macrophages", "experimental": "(§3) L. (L.) amazonensis and L. (V.) braziliensis promastigotes with 7–8 days and 5–6 days of growth, respectively, were harvested from cultures and added to a fresh Schneider's medium supplemented with 5% FCS, pH 6.0, and incubated at 32°C for 7 days for L. (L.) amazonensis and 4–5 days for L. (V.) braziliensis until a complete transformation to amastigote-like.\n(§4) Peritoneal macrophages from BALB/c mice were harvested by washing with ice-cold RPMI 1640 medium, 4 days after induction with a 3% thioglycollate solution. Macrophages were diluted in RPMI 1640 medium (Sigma, Poole, United Kingdom) plus 10% FCS and plated in 24 well plates with a circular cover glass at a plating density of 2×10^5 macrophages/well. Macrophages were allowed to adhere for 2 h at 37°C and 5% CO2, when the medium was replaced by a fresh one and incubated overnight.\nMacrophages were infected with amastigote-like parasites from L. (L.) amazonensis or L. (V.) braziliensis. The parasites were counted in a Neubauer's chamber and adjusted to a macrophage-amastigote ratio of 1∶8. Infected cultures were maintained at 37°C and 5% CO2. After 4 h, extracellular parasites were removed by washing, and a fresh medium containing either TPM compounds, no drug, or the reference drug. AmB (Fungizone®-Bristol- Meyers Squibb Pharmaceutics Ltda, Bedford, USA) was the chosen reference drug and was used at 0.2 µg/mL. After 72 h, the cover glass was removed from the well, washed in RPMI 1640 medium, set in microscope blades, fixed with methanol, and stained with Giemsa for evaluation. Under the immersion microscope, infection indexes (number of amastigotes/100× percentage of infected macrophages) were determined by counting the numbers of intracellular amastigotes in 100 macrophages. […] Each point was tested in triplicate and three independent experiments were then performed. Results are presented as mean and 95% CI [25]."}, "[5]": {"test_system": "L. (V.) braziliensis intracellular amastigotes", "test": "Intracellular amastigote assay, L. (V.) braziliensis in BALB/c peritoneal macrophages", "format": "cell-based, Leishmania (Viannia) braziliensis", "details": "Leishmania braziliensis, in Mus musculus, 72 h", "experimental": "as §3, §4\nMacrophages were infected with amastigote-like parasites from L. (L.) amazonensis or L. (V.) braziliensis. The parasites were counted in a Neubauer's chamber and adjusted to a macrophage-amastigote ratio of 1∶8. Infected cultures were maintained at 37°C and 5% CO2. […] Under the immersion microscope, infection indexes (number of amastigotes/100× percentage of infected macrophages) were determined by counting the numbers of intracellular amastigotes in 100 macrophages. […]"}, "[6]": {"test_system": "L. (L.) major promastigotes", "test": "Promastigotes assay, L. (L.) major", "format": "cell-based", "details": "Leishmania major, 48 h incubation, mean of triplicates", "experimental": "as §1, §2"}, "[7]": {"test": "Cytotoxicity MTT assay on macrophages", "format": "cell-based", "details": "mouse, BALB/c peritoneal macrophages, 68 h + 4 h", "experimental": "To evaluate the toxicity of selected compounds, an in vitro cytotoxicity assay on macrophages from BABL/c mice was performed through 3-(4,5-dimethyithiazol-2-yl)-2,5- diphenyltetrazolium bromide (MTT) (Sigma, Poole, United Kingdom) assay. Briefly, peritoneal macrophages from BALB/c mice were harvested, as described previously and plated in 96-well-flat-bottom microplates at a plating density of 1×10^5 macrophages/well. Macrophages were allowed to adhere for 2 h at 37°C and 5% CO2, at which time the medium was replaced by a fresh one and incubated over night. Then, the cells were exposed to ten points of serial dilution of TPM 1, 2, 6, 9 or GV ([…]), which were used to obtain a curve to determine the IC50. After 68 h of incubation, 10 µL of MTT (10 mg/mL) was added to each well and the plates were further incubated for 4 h. The enzymatic reaction was then stopped by addition of 100 µL of 50% isopropanol–10% sodium dodecyl sulfate solution. The optical density at 570 nm was quantified using an ELISA plate reader (BioSource, Inc., EUA). Three independent experiments, in triplicate, were performed to determine the cytotoxicity and data were expressed as mean and 95% CI. An experiment was also done to control the possibility of dye color interference on MTT assay. […] The optical density at 570 nm was measured using an ELISA plate reader (BioSource, Inc., EUA)."}, "[8]": {"test_system": "L (L.) amazonensis-infected BALB/c mice", "test": "In vivo topical gel treatment, parasite quantification at the site of infection by limiting dilution", "design": "species or system Leishmania (Leishmania) amazonensis in BALB/c mice", "details": "twice a day, 20 days; for decrease of parasite burdens versus control / parasite burdens at site of infection (number of parasites): 1% gel; for parasite burdens at site of infection (number of parasites): 3 days after treatment, control group 1×10^7 (Figure 3A); for number of parasites within the lesion: control group 2.2×10^7 (Figure 3B)", "experimental": "The formulation of the GV and TPM 6 gel was prepared by mixing equal amounts of a 2% hydroxyethylcellulose gel (HEC; Natrosol 250 HR, Aqualon) and a 2% GV or TPM 6 hydroethanolic solution (mixture ethanol/water 1/5), until a homogeneous preparation had been attained. Therefore, GV and TPM 6 concentration in these formulations was 1%. The gel lower concentrations for dose-response experiments was obtained by diluting the 1% GV gel with 1% HEC gel.\nBALB/c mice (females, 5–6 weeks old) were inoculated with 1×10^7 stationary growth phase promastigotes of L (L.) amazonensis through subcutaneous injections at the base of the tail, after trichotomy.\nTo evaluate the in vivo efficacy of GV and TPM 6, after development of ulcerated lesions (average diameter of 7 to 9 mm), BALB/c mice were divided into three groups. For treatment with TPM 6 and GV, lesions were covered with 50 µl of a gel formulation containing either 1% GV or 1% TPM 6, twice a day, for 20 days, using an Eppendorf pippetor. Control group: animals from control group were treated with the gel formulation without GV or TPM 6 (placebo). The treatment efficacy was evaluated through of the parasite quantification at the site of infection (see below).\nAfterwards, a dose-effect study of GV was performed. BALB/c mice, presenting ulcerated lesions (average diameter of 7 to 9 mm), were divided into four groups, according to lesion size, to assure similar average lesion size among treated groups. The GV gel formulation was applied topically at 0.1, 0.5 or 1.0% twice a day, for 20 days. Control group: animals from control group were treated with the gel formulation without GV (placebo). The treatment efficacy was evaluated through of the parasite quantification at the site of infection (see below).\nThree days after the interruption of treatment, the number of viable parasites at the site of infection was quantified by a limiting-dilution assay. Skin fragments from ulcerated lesions, were homogenized with a tissue grinder in Schneider's modified medium supplemented with 10% bovine fetal serum and 100 U/mL penicilin and 100 µg/mL streptomycin. Next, the tissue was centrifuged at 50 g for two minutes for sedimentation (Hitachi, Himac). The supernatant was separated and centrifuged again at 1700 g for 15 minutes (Express, Jouan). The pellet formed was resuspended in 1 mL of Schneider's modified medium supplemented with 10% FCS and 1% of a 100 U/mL penicillin and 100 µg/mL streptomycin solution. The homogenate was submitted to serial dilutions in duplicates in sterile 96 well culture plates and incubated at 23°C. Each well was examined for the presence of parasites, and the number of parasites was quantified by the highest dilution at which parasites could grow over a 7-day period. The lowest dilution that parasites were detected was 10^−1, which was considered the limit of quantification."}, "[9]": {"test_system": "L. (V.) braziliensis promastigotes", "test": "Promastigotes assay, L. (V.) braziliensis", "format": "cell-based, Leishmania (Viannia) braziliensis", "details": "Leishmania braziliensis, 48 h incubation, mean of triplicates", "experimental": "as §1, §2"}, "[10]": {"details": "Peritoneal macrophage, control drug at 0.2 µg/ml, intracellular amastigotes, read-out: mean value of parasite growth inhibition"}}, "note": "“Also recorded” adds a separate entry of the source."}
{"compound": "CN(C)c1ccc(C(=C2C=CC(c3cnc(-c4ccc(-c5ncc(-c6ccccc6)o5)cc4)o3)C=C2)c2ccc(N(C)C)cc2)cc1", "note": "(stereo not drawn) [TPM 7]", "values": [{"measurement": "IC50", "setting": "[1]", "value": "> 5", "unit": "µM"}]}
{"compound": "meglumine antimoniate [Glucantime]", "values": [{"measurement": "reduction in lesions size", "setting": "[2]", "value": "did not lead to significant reductions in lesions size"}, {"measurement": "reduction in lesions size", "setting": "[3]", "value": "did not lead to significant reductions in lesions size"}]}
{"compound": "CCN(CC)c1ccc(C(=C2C=C(C(c3ccc(Cl)cc3)C(Cl)(Cl)Cl)C=CC2=[Cl+])c2ccc(N(CC)CC)cc2)cc1", "note": "(stereo not drawn) [TPM 10]", "values": [{"measurement": "IC50", "setting": "[1]", "value": "> 4", "unit": "µM"}]}
{"compound": "C[C@@H]1[C@H](O)[C@@H](C)/C=C/C=C/C=C/C=C/C=C/C=C/C=C/[C@H](O[C@@H]2O[C@H](C)[C@@H](O)[C@H](N)[C@@H]2O)C[C@@H]2O[C@](O)(C[C@@H](O)C[C@@H](O)[C@H](O)CC[C@@H](O)C[C@@H](O)CC(=O)O[C@H]1C)C[C@H](O)[C@H]2C(=O)O", "note": "[AmB, amphotericin B]", "values": [{"measurement": "inhibition at 0.2 µg/mL", "setting": "[4]; [10]", "value": 99.5, "unit": "%"}, {"measurement": "inhibition at 0.2 µg/mL", "setting": "[5]; [10]", "value": 98, "unit": "%"}]}
{"compound": "CCN(CC)c1ccc(C(=C2C=C(Cl)C=CC2=[Cl+])c2ccc(N(CC)CC)cc2)cc1", "note": "[TPM 3]", "values": [{"measurement": "IC50", "setting": "[1]", "value": "> 1", "unit": "µM"}]}
{"compound": "CN(C)c1ccc(C(=C2C=CC(=[N+](C)C)C=C2)c2ccc(N(C)C)cc2)cc1", "note": "[GV, gentian violet]", "values": [{"measurement": "IC50", "setting": "[1]", "value": 0.025, "unit": "µM"}, {"measurement": "IC50", "setting": "[6]", "value": 0.034, "unit": "µM"}, {"measurement": "IC50", "setting": "[4]", "value": 170, "unit": "nM"}, {"measurement": "IC50 at 68 h", "setting": "[7]", "value": 4030, "unit": "nM"}, {"measurement": "decrease of parasite burdens versus control", "setting": "[8]", "value": "complete elimination of parasites"}, {"measurement": "parasite burdens at site of infection (number of parasites)", "setting": "[8]", "value": "no parasites were found"}, {"measurement": "number of parasites within the lesion", "setting": "[8]; GV gel 0.1%", "value": "2.2×10^6"}, {"measurement": "number of parasites within the lesion", "setting": "[8]; GV gel 0.5%", "value": "2.62×10^5"}, {"measurement": "number of parasites within the lesion", "setting": "[8]; GV gel 1%", "value": "parasites were not detected; also recorded: complete elimination of parasite burden"}]}
{"compound": "CCN(CC)c1ccc(C(=C2C=CC(C)C=C2)c2ccc(N(CC)CC)cc2)cc1", "note": "(stereo not drawn) [TPM 6]", "values": [{"measurement": "IC50", "setting": "[1]", "value": 0.031, "unit": "µM"}, {"measurement": "IC50", "setting": "[6]", "value": 0.045, "unit": "µM"}, {"measurement": "IC50", "setting": "[9]", "value": 0.063, "unit": "µM"}, {"measurement": "IC50", "setting": "[4]", "value": 100, "unit": "nM"}, {"measurement": "IC50", "setting": "[5]; Macrophage, intracellular amastigotes in macrophages", "value": 100, "unit": "nM"}, {"measurement": "IC50 at 68 h", "setting": "[7]", "value": 4160, "unit": "nM"}, {"measurement": "decrease of parasite burdens versus control", "setting": "[8]", "value": "three orders of magnitude"}, {"measurement": "parasite burdens at site of infection (number of parasites)", "setting": "[8]", "value": "1×10^4"}]}
